Experimental data: patent publication US20230330094A1, “COMBINATION COMPOSITIONS AND METHODS FOR TREATING CANCER” (The Board of Supervisors of Louisiana State University and …, priority 2020, published 2023)
Entries after “also recorded” stand apart in the source; their conditions may differ.

Columns and labels:
P2×2 = molecular target: T1, P2×2 (Homo sapiens, UniProt Q9UBL9); details: cited from earlier work
T1 sequence (Q9UBL9 1-471): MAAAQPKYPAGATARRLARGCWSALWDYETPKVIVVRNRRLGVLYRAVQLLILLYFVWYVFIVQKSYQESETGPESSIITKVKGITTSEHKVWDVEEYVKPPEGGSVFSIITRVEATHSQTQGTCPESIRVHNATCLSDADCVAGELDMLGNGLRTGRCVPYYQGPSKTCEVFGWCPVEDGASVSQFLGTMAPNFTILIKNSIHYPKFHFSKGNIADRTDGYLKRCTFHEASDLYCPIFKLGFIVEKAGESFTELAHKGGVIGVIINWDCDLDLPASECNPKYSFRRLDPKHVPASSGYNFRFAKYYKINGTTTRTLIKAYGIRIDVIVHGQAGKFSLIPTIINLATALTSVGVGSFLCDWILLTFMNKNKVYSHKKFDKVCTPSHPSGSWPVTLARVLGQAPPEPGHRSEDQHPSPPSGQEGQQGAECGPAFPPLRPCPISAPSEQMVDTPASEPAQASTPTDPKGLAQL

P2Xs = details: cited from earlier work
P2Y 2 = P2Y 2 (Homo sapiens, UniProt P41231); details: cited from earlier work
P2Y 2, sequence (P41231 whole entry, species assumed): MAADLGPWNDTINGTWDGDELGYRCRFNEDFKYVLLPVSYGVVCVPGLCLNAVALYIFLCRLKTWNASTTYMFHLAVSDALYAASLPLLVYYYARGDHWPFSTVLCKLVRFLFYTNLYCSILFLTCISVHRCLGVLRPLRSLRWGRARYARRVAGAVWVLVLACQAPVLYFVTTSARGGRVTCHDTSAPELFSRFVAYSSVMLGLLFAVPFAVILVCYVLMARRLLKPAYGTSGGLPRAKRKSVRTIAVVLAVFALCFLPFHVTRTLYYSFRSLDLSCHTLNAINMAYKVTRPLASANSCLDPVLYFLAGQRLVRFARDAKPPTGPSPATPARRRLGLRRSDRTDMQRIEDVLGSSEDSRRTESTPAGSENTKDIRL

P2Y4 = P2Y4 (Homo sapiens, UniProt P51582); details: cited from earlier work
P2Y4, sequence (P51582 whole entry, species assumed): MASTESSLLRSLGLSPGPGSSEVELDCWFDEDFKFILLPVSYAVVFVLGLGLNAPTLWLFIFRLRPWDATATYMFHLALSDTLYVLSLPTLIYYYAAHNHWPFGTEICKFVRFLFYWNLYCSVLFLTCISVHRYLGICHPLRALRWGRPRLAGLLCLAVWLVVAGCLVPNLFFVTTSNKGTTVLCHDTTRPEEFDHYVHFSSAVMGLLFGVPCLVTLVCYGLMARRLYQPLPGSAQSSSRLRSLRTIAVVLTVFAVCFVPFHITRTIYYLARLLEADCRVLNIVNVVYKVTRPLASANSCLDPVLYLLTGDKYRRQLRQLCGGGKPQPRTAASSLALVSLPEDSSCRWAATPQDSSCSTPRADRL

[1] = tested on: luciferase-modified U87MG tumor cells; test: In vivo bioluminescent imaging of intracranial tumor growth, orthotopic GBM mouse model; details: imaging days 13, 20 and 30; vs saline/vehicle
[2] = tested on: luciferase-modified U87MG tumor cells; test: Ex vivo T1-weighted MRI tumor volume, orthotopic GBM mouse model; format: in vivo; details: day 30, ex vivo MRI; vs saline
Method: Athymic nude female mice (Charles Rivers Laboratories and Envigo), 6 to 8 weeks of age, were anesthetized with a ketamine/xylazine cocktail solution (100 mg/kg; 10 mg/kg). Then, mice were secured in a stereotactic head frame and a midline 1 cm incision over the scalp was made. Natural tears lubricant was applied to the eyes. For each mouse, 5 × 10^6 U87MG cells in 5 µL serum free Dulbecco’s Modified Eagle Medium (DMEM) tagged with a luciferase […] gene were implanted into the right hippocampus using a 10 µL Hamilton syringe at the following coordinates, in reference to the bregma: 1.5 mm lateral, 1.5 mm posterior and 3.5 mm in depth; the needle was lowered to 3.5 mm and pulled up by 1 mm, prior to the injection (Marrero et al., 2014) (FIG. 1B). Rectal and cranial temperatures will be maintained at 36-37° C. during surgical procedure. […]
Treatment was administered starting on day 13 after implantation, and intracranial tumor growth was quantified using in vivo bioluminescent imaging on days 13 (before treatment) and then 20 and 30. […]
Cheshire image processing software (Hayden Image/Processing Group, Waltham, MA), was used to manually outline whole brain and tumor volumes enhanced by Gd deposition. […] Whole brain and tumor volumes (mm^3) were extracted and analyzed (Jeffes et al., 2005; Blasiak et al., 2013). […]

[3] = Physiological variables (body weight, temperature, survival) in GBM mouse model; format: in vivo
Method: Athymic nude female mice (Charles Rivers Laboratories and Envigo), 6 to 8 weeks of age, were anesthetized with a ketamine/xylazine cocktail solution (100 mg/kg; 10 mg/kg). Then, mice were secured in a stereotactic head frame and a midline 1 cm incision over the scalp was made. Natural tears lubricant was applied to the eyes. […] Rectal and cranial temperatures will be maintained at 36-37° C. during surgical procedure. The incision was closed using black monofilament nylon 5.0 sterile sutures and the area was cleaned with betadine solution. The mice were placed in individual cages and observed daily for weight, temperature, and locomotor changes. Mice were perfused at the end of the 30-day survival, brains removed and ex vivo MRI imaging were conducted.
Mice were anesthetized with a ketamine/xylazine cocktail solution (100 mg/kg; 10 mg/kg) and secured in a stereotactic head frame. A midline, 1 cm incision was made over the scalp. Natural tear lubricant was applied to the eyes. For each mouse, 5 × 10^6 U87MG cells in 5 µL serum-free Dulbecco’s Modified Eagle Medium (DMEM) were injected into the right hippocampus using a 10 µL Hamilton syringe at the following coordinates related to the bregma: 1.5 mm lateral, 1.5 mm posterior, and 3.5 mm in depth. […]

recurrent GBM = details: single agent or in combination with chemotherapy; cited from earlier work

Compound | pEC50 (P2×2) (P2×2) | pEC50 (P2Xs) (P2Xs) | pEC50 (P2Y 2) (P2Y 2) | pEC50 (P2Y4) (P2Y4) | Bioluminescent tumor growth/size vs vehicle (in words) [1] | MRI (T1WI) tumor volume reduction compared to vehicle [2] [%] | MRI (T1WI) tumor volume vs vehicle (in words) [2] | Survival ([3]; 30-day survival period) | Change in rectal temperature compared to vehicle ([3]; during the 30 days of survival) | Radiographic response rate (recurrent GBM)
Cc1ccc(C(=O)Nc2ccc(S(=O)(=O)O)c3cc(S(=O)(=O)O)cc(S(=O)(=O)O)c23)cc1NC(=O)c1cccc(NC(=O)Nc2cccc(C(=O)Nc3cc(C(=O)Nc4ccc(S(=O)(=O)O)c5cc(S(=O)(=O)O)cc(S(=O)(=O)O)c45)ccc3C)c2)c1 [Suramin] | 4.5 | 5.4 | 4.3 | 4.0 |  |  |  |  |  | 
Avastin: recombinant humanized anti-VEGF monoclonal antibody |  |  |  |  | reduced tumor size; also recorded: repress orthotopic GBM; also recorded: significantly reduced tumorigenesis; also recorded: significant reduction in growth and size | 67 | reduced GBM tumor volumes | improved survival | No significant changes | up to 40%
